Results: patent publication US20240376099A1, “COMPOUNDS AND COMPOSITIONS AS INHIBITORS OF ENDOSOMAL TOLL-LIKE RECEPTORS” (Novartis AG, priority 2016, published 2024)

These molecules were tested against T1, TLR8 (Homo sapiens, UniProt Q9NR97) (assay: huPBMC TLR8 Antagonist IL-6 TR-FRET Assay). Settings: human PBMCs stimulated with ssRNA40 1 μg/ml (DOTAP), 14-16 hrs; IL-6 TR-FRET read-out.
T1 sequence (Q9NR97 27-1041): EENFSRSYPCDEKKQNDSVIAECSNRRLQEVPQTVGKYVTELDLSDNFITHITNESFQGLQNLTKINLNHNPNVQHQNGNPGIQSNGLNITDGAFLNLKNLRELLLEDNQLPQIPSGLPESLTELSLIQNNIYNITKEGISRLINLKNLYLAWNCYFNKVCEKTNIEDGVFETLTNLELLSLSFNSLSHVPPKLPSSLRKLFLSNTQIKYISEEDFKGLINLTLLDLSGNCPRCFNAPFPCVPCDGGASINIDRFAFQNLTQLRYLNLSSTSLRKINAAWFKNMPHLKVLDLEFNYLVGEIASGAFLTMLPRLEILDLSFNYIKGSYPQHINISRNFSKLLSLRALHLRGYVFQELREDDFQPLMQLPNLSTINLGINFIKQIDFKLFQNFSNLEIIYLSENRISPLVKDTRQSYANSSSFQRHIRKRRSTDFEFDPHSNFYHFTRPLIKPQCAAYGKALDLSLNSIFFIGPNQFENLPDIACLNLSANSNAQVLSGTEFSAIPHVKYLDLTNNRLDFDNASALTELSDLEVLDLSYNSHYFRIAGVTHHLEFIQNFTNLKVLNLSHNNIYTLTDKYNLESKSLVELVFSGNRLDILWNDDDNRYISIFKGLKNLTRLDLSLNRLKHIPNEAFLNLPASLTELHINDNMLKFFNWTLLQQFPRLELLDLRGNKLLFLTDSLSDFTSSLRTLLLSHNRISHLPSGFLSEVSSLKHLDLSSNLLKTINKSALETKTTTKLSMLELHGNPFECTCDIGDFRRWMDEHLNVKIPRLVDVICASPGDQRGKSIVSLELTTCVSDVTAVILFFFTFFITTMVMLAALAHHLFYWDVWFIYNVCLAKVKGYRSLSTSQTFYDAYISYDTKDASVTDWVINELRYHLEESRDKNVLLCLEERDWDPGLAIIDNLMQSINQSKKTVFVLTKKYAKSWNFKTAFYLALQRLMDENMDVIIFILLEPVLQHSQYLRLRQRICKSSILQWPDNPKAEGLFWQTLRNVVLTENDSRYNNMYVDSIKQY
Type: cell-based
Parameters: Fresh blood was collected from normal human donors; endogenous in cells; host or cells: human PBMCs from fresh donor blood
Description: Compounds were generally serially diluted (1/3) in DMSO and plated on sterile 384 well tissue culture plates and stored until ready for use. Each ten-point dilution was typically plated in triplicate in parallel rows.
Fresh blood was collected from normal human donors underwritten informed consent in heparinized syringes on the morning of the assay. The blood was diluted in RPMI-1640 medium and the white blood cells were separated from red blood cells by centrifugation (800 g 15′ 0 acceleration, 0 brake) on a Ficoll cushion. Peripheral blood mononuclear cells (PBMCs) were separated from platelets by a series of low-speed centrifugations (1000RPM 10′) in PBS+5% HI—FBS and 1 mM EDTA. Purified PBMCs were re-suspended in assay medium (RPMI-1640 w Glutamax (Invitrogen) supplemented with 5% HI—FBS, 10 mM HEPES, 50 uM β-mercaptoethanol, and 100 mG/L penicillin/streptomycin cocktail). Viable PBMCs were counted on a hemacytometer and kept on ice until ready for plating.
A 4× concentration (4 ug/ml or 40 ug/ml for TLR8 or TLR7 assays, respectively) of the TLR7/8 agonist ssRNA40 (IDT) was complexed with 10% DOTAP (Roche) in assay medium for 30 min prior to addition to the PBMC suspension (5 million cells/ml). After addition, the final concentration of ssRNA40 in the TLR7/8 stimulated PBMC suspension was 1 μg/ml for TLR8 assay, and 10 μg/mL for the TLR7 assay. The final DOTAP concentration was 2.5%. Diluted PBMCs (5 million cells/ml) were treated with 4×TLR9 agonist ODN2216 (Invivogen). Final concentration of ODN2216 in TLR9 stimulated PBMC suspension was 0.3 μM.
Agonist stimulated PBMCs were plated on the compound treated 384 well plates at 150,000 cells/well. Un-stimulated PBMCs were plated as controls on each plate. Plating volume was 40 μL per well. DMSO concentration in each well was 0.25%.
A separate plate, without compounds, with titrations of ssRNA40 and ODN2216 was included in every assay to measure agonist response of each donor's PBMC prep. Assay plates were placed in a tissue culture incubator (37° C., 5% CO2) for 14-16 hrs. After this incubation, the plates were centrifuged and stored at −20° C. until they were assayed.
IL-6 TR-FRET Assay for TLR8 activity: • 1) Cisbio Human IL-6 kit, 20,000 tests (62TNFPEC), and GNF High-Base TC 384 well plates (cat #789163G) were used; • 2) the Anti-TIL-6 Cryptate conjugate and the Anti-IL-6 XL665 conjugate were diluted 1:20 in Reconstitution Buffer; • 3) a 1:1 mixture of 3 μl/well Anti-IL-6 Cryptate conjugate and 3 μl/well Anti-IL-6 XL665 conjugate was prepared; • 4) 6 μl/well HTRF dilution mastermix was added to 6 μl of transferred supernatant samples in proxiplates; • 5) The plates were incubated for 3 hrs at rt in the dark; and • 6) the levels of IL-6 production was measured using an Envision plate reader (665 nm (emmission)/590 nm (excitation)) with HTRF settings and ratiometric read-out: (XL665 emission/Eu Cryptate emission)×10,000. IFNα2b AlphaLISA Assay for TLR7 or TLR9 activity After thawing the assay plates, 6 μL of supernatant samples were transferred to a low-volume AlphaPlate 384SW (Perkin-Elmer). The concentration of IFNα in supernatants was measured using the IFNα2b AlphaLISA Assay (Perkin-Elmer: AL297F). 3 μL of IFNα acceptor beads/biotinylated antibody solution was added first, using laboratory automation. After an hour incubation, […] of streptavidin […] bead solution was added. The plates containing this mixture were incubated in the dark for an hour and read on an appropriate plate reader at reading parameters set by the manufacturer. (Envision, EnSpire: Perkin-Elmer).

Question: `COc1ccc(-c2cc(N3CCc4c(c(C)nn4CC45CCC(N)(CC4)CC5)C3)ccn2)cc1` [compound 89, 4-((5-(2-(4-methoxyphenyl)pyridin-4-yl)-3-methyl-4,5,6,7-tetrahydro-1H-pyrazolo[4,3-c]pyridin-1-yl)methyl)bicyclo[2.2.2]octan-1-amine] was tested. Which IC50 did it give?
Answer: Its IC50 is 622 nM.

Question: How did the IC50 turn out when `Cc1ccc(-c2cc(N3CCc4c(c(C)nn4CC45CCC(N)(CC4)CC5)C3)ccn2)cc1` [compound 90, 4-((3-methyl-5-(2-(p-tolyl)pyridin-4-yl)-4,5,6,7-tetrahydro-1H-pyrazolo[4,3-c]pyridin-1-yl)methyl)bicyclo[2.2.2]octan-1-amine] was run?
Answer: Its IC50 is 1010 nM.

Question: With `Cc1cc(N2CCc3c(c(C)nn3CC34CCC(N)(CC3)CC4)C2)cc(-c2ccccc2)n1` [compound 93, 4-((3-methyl-5-(2-methyl-6-phenylpyridin-4-yl)-4,5,6,7-tetrahydro-1H-pyrazolo[4,3-c]pyridin-1-yl)methyl)bicyclo[2.2.2]octan-1-amine] as the molecule, how does the IC50 read?
Answer: The IC50 was 983 nM.

Question: `Cc1nn(CC23CCC(N)(CC2)CC3)c2c1CN(c1ccnc(-c3ccccn3)c1)CC2` [compound 94, 4-((5-([2,2'-bipyridin]-4-yl)-3-methyl-4,5,6,7-tetrahydro-1H-pyrazolo[4,3-c]pyridin-1-yl)methyl)bicyclo[2.2.2]octan-1-amine] was tested. Which IC50 did it give?
Answer: The IC50 was 1110 nM.

Question: With `Cc1cc(N2CCc3c(c(C)nn3CC34CCC(N5CCCCC5)(CC3)CO4)C2)c2cnn(C)c2n1` [compound 95, 5-(1,6-dimethyl-1H-pyrazolo[3,4-b]pyridin-4-yl)-3-methyl-1-((4-(piperidin-1-yl)-2-oxabicyclo[2.2.2]octan-1-yl)methyl)-4,5,6,7-tetrahydro-1H-pyrazolo[4,3-c]pyridine] as the molecule, how does the IC50 read?
Answer: The IC50 was 85 nM.

Question: With `COCC(C)NC12CCC(Cn3nc(C)c4c3CCN(c3cc(C)nc5c3cnn5C)C4)(CC1)CC2` (stereo not drawn) [compound 96, 4-((5-(1,6-dimethyl-1H-pyrazolo[3,4-b]pyridin-4-yl)-3-methyl-4,5,6,7-tetrahydro-1H-pyrazolo[4,3-c]pyridin-1-yl)methyl)-N-(1-methoxypropan-2-yl)bicyclo[2.2.2]octan-1-amine] as the molecule, how does the IC50 read?
Answer: Its IC50 is 775 nM.

Question: With `CCN(C)C12CCC(Cn3nc(C)c4c3CCN(c3cc(C)nc5c3cnn5C)C4)(CC1)CC2` [compound 97, 4-((5-(1,6-dimethyl-1H-pyrazolo[3,4-b]pyridin-4-yl)-3-methyl-4,5,6,7-tetrahydro-1H-pyrazolo[4,3-c]pyridin-1-yl)methyl)-N-ethyl-N-methylbicyclo[2.2.2]octan-1-amine] as the molecule, how does the IC50 read?
Answer: Its IC50 is 89 nM.

Question: With `Cc1cc(N2CCc3c(c(C)nn3CC34CCC(N(C)C)(CC3)CO4)C2)c2cnn(C)c2n1` [compound 98, 1-((5-(1,6-dimethyl-1H-pyrazolo[3,4-b]pyridin-4-yl)-3-methyl-4,5,6,7-tetrahydro-1H-pyrazolo[4,3-c]pyridin-1-yl)methyl)-N,N-dimethyl-2-oxabicyclo[2.2.2]octan-4-amine] as the molecule, how does the IC50 read?
Answer: The IC50 was 718 nM.

Question: With `Cc1nn(CC23CCC(N)(CC2)CC3)c2c1CN(c1nc(Cl)nc3c1COC3)CC2` [compound 103, 4-((5-(2-chloro-5,7-dihydrofuro[3,4-d]pyrimidin-4-yl)-3-methyl-4,5,6,7-tetrahydro-1H-pyrazolo[4,3-c]pyridin-1-yl)methyl)bicyclo[2.2.2]octan-1-amine] as the molecule, how does the IC50 read?
Answer: The IC50 was 1420 nM.

Question: How did the IC50 turn out when `Cc1cc(N2CCc3c(c(C)nn3CC34CCC(NC(=O)C5COCCN5C)(CC3)CC4)C2)c2cnn(C)c2n1` (stereo not drawn) [compound 122, N-(4-((5-(1,6-dimethyl-1H-pyrazolo[3,4-b]pyridin-4-yl)-3-methyl-4,5,6,7-tetrahydro-1H-pyrazolo[4,3-c]pyridin-1-yl)methyl)bicyclo[2.2.2]octan-1-yl)-4-methylmorpholine-3-carboxamide] was run?
Answer: Its IC50 is 922 nM.

Question: How did the IC50 turn out when `Cc1nc(N2CCc3c(c(C)nn3CC34CCC(N)(CC3)CC4)C2)c2cnn(C)c2n1` [compound 149, 4-((5-(1,6-dimethyl-1H-pyrazolo[3,4-d]pyrimidin-4-yl)-3-methyl-4,5,6,7-tetrahydro-1H-pyrazolo[4,3-c]pyridin-1-yl)methyl)bicyclo[2.2.2]octan-1-amine] was run?
Answer: The IC50 was 695 nM.

Question: Which IC50 does the source give for `CCn1ncc2c(N3CCc4c(c(C)nn4CC45CCC(N)(CC4)CC5)C3)cc(C)nc21` [compound 150, 4-((5-(1-ethyl-6-methyl-1H-pyrazolo[3,4-b]pyridin-4-yl)-3-methyl-4,5,6,7-tetrahydro-1H-pyrazolo[4,3-c]pyridin-1-yl)methyl)bicyclo[2.2.2]octan-1-amine] here?
Answer: Its IC50 is 4200 nM.
